According to US6498156B2, “Diphenylazetidinone derivatives, process for their preparation, medicaments comprising these compounds and their use” (Aventis Pharma Deutschland GmbH, priority 2000, dated 2002):

Columns and labels:
[1] = Bioabsorption in the Caco cell model; assay type: in vitro ADME; conditions: human, Caco-2; Caco cell model; read-out: Apparent partition coefficient Papp (according to Lit. Hilgers)
Text: (§1) The bioabsorption of the compounds of the formula I was examined using the Caco cell model (A. R. Hilgers et al., Caco-2 cell monolayers as a model for drug transport across the intestinal mucosa, Pharm. Res. 1990, 7, 902).
(§2) From the measured data, it can be seen that the bioabsorption of the compounds of the formula I according to the invention is considerably lower than that of compounds described in the prior art (reference structure): […]

[2] = system: Caco-2 cell monolayers; assay: Bioabsorption in the Caco cell model; assay type: in vitro ADME; conditions: estimated from Caco cell model data
Text: as §1, §2

[3] = system: Cholesterol absorption (uptake of 14C-cholesterol by the liver); assay: Cholesterol absorption test: uptake of 14C-cholesterol by the liver after peroral test meal; assay type: in vivo, NMRI mice; conditions: dose at which the uptake of 14C-cholesterol by the liver is halved (50%) vs control group, mouse
Text: Effect on Cholesterol Absorption +^3H-taurocholic Acid Excretion Using Fecal Excrement of Mice, Rats or Hamsters
NMRI mice, Wistar rats, or Golden Syrian hamsters (in groups of n=4-6) are kept in metabolic cages, where they are fed with a standard diet (Altromin, Lage (Lippe)). The afternoon prior to the administration of the radioactive tracers (^14C-cholesterol), the feed is removed and the animals are adapted to grates.
Additionally, the animals are labeled s.c. with ^3H-TCA (taurocholic acid) (for example 1 μCi/mouse up to 5 μCi/rat) 24 hours prior to the peroral administration of the test meal (^14C-cholesterol in Intralipid® 20, Pharmacia-Upjohn).
Cholesterol absorption test: 0.25 ml/mouse Intralipid ® 20 (Pharmacia-Upjohn) ((Spiked with 0.25 μCi of ^14C-cholesterol in 0.1 mg of cholesterol) are administered perorally by gavage.
Test substances were prepared separately in 0.5% methylcellulose (Sigma)/5% Solutol (BASF, Ludwigshafen) or a suitable vehicle.
The administration volume of the test substance is 0.5 ml/mouse. The test substance is administered immediately prior to the test meal (Intralipid labeled with ^14C-cholesterol) (cholesterol absorption test).
The feces are collected over a period of 24 h: fecal elimination of ^14C-cholesterol and ^3H-taurocholic acid (TCA) is determined after 24 hours.
The livers are removed and homogenized, and aliquots are incinerated in an oximate (Model 307, Packard) to determine the amount of ^14C-cholesterol which had been taken up/absorbed.
The amount of ^14C-cholesterol taken up by the liver is based on the administered dose. The ED50 values are interpolated from a dose-effect curve as the dose at of which the uptake of ^14C-cholesterol by the liver is halved (50%), based on a control group.

Compound | ED50 (liver) [3] | melting point | further results
CCCCC1(CC)CS(=O)(=O)c2ccc(N(C)C)cc2C(c2cccc(NC(=O)CCCCCCCCCCC(=O)NCc3cccc(C4C(CCC(O)c5ccc(F)cc5)C(=O)N4c4ccc(F)cc4)c3)c2)[C@H]1O.O=C(O)C(F)(F)F (stereo in doubt) [Example XII, (3-Butyl-3-ethyl-5-{3-[11-(3-{1-(4-fluorophenyl)-3-[3-(4-fluorophenyl)-3-hydroxypropyl]-4-oxoazetidin-2-yl}benzylcarbamoyl)undecanoylamino]phenyl}-4-hydroxy-1,1-dioxo-2,3,4,5-tetrahydro-1H-benzo[b]thiepin-7-yl)dimethylammonium Trifluoro-acetate] | – | – | Papp [1]: 0.00367 ×10⁻⁶ cm/s; Estimated human bioabsorption [2]: <1%
CCCCC1(CC)CS(=O)(=O)c2ccc(N(C)C)cc2C(c2cccc(NC(=O)CCCCC(=O)NCc3ccc(C4C(CCC(O)c5ccccc5)C(=O)N4c4ccc(F)cc4)cc3)c2)C1O (stereo not drawn) [II, N-[3-(3-Butyl-7-dimethylamino-3-ethyl-4-hydroxy-1,1-dioxo-2,3,4,5-tetrahydro-1H-benzo[b]thiepin-5-yl)phenyl]-N′-4-[1-(4-fluorophenyl)-3-(3-hydroxy-3-phenylpropyl)-4-oxoazetidin-2-yl]benzyl-hexanediamide] | 0.01 mg/mouse | 150 °C | –
CCCCC1(CC)CS(=O)(=O)c2ccc(N(C)C)cc2C(c2cccc(NC(=O)CCCCC(=O)NCc3ccc(C4C(CCC(O)c5ccc(F)cc5)C(=O)N4c4ccc(F)cc4)cc3)c2)C1O (stereo not drawn) [III, N-[3-(3-Butyl-7-dimethylamino-3-ethyl-4-hydroxy-1,1-dioxo-2,3,4,5-tetrahydro-1H-benzo[b]thiepin-5-yl)phenyl]-N′-4-{1-(4-fluorophenyl)-3-[3-(4-fluorophenyl)-3-hydroxypropyl]-4-oxo-azetidin-2-yl}benzyl-hexanediamide] | 0.03 mg/mouse | – | –
O=C1[C@H](CC[C@H](O)c2ccc(F)cc2)[C@@H](c2ccc(O)cc2)N1c1ccc(F)cc1 [Reference structure, Ezetimibe, reference compound] | – | – | Papp [1]: 4.88 ×10⁻⁶ cm/s; Estimated human bioabsorption [2]: 100%
CCCCC1(CC)CS(=O)(=O)c2ccc(N(C)C)cc2C(c2cccc(NC(=O)COCCOCCOCC(=O)NCc3ccc(C4C(CCC(O)c5ccccc5)C(=O)N4c4ccc(F)cc4)cc3)c2)C1O (stereo not drawn) [VI, [2-(2-{[3-(3-Butyl-7-dimethylamino-3-ethyl-4-hydroxy-1,1-dioxo-2,3,4,5-tetrahydro-1H-benzo[b]thiepin-5-yl)-phenylcarbamoyl]methoxy}ethoxy)ethoxy]-[N-{4-[1-(4-fluorophenyl)-3-(3-hydroxy-3-phenylpropyl)-4-oxoazetidin-2-yl]benzyl}]acetamide] | – | 120 °C | –
CCCCC1(CC)CS(=O)(=O)c2ccc(N(C)C)cc2C(c2cccc(NC(=O)COCCOCC(=O)NCc3cccc(C4C(CCC(O)c5ccc(F)cc5)C(=O)N4c4ccc(F)cc4)c3)c2)C1O.O=C(O)C(F)(F)F (stereo not drawn) [VIII, (3-Butyl-3-ethyl-5-[3-(2-{2-[(3-{1-(4-fluorophenyl)-3-[3-(4-fluorophenyl)-3-hydroxypropyl]-4-oxoazetidin-2-yl}benzylcarbamoyl)methoxy]ethoxy}acetylamino)phenyl]-4-hydroxy-1,1-dioxo-2,3,4,5-tetrahydro-1H-benzo[b]thiepin-7-yl)dimethylammonium Trifluoroacetate] | 0.003 mg/mouse | – | –
CCCCC1(CC)CS(=O)(=O)c2ccc(N(C)C)cc2C(c2cccc(NC(=O)CCCCCCCNCc3ccc(C4C(CCC(O)c5ccc(F)cc5)C(=O)N4c4ccc(F)cc4)cc3)c2)C1O.O=C(O)C(F)(F)F (stereo not drawn) [XXV] | 0.01 mg/mouse | – | –
CCCCC1(CC)CS(=O)(=O)c2ccc(N(C)C)cc2C(c2cccc(NC(=O)COCCOCC(=O)NCc3ccc(N4C(=O)C(CCC(O)c5ccc(F)cc5)C4c4ccc(OC)cc4)cc3)c2)C1O (stereo not drawn) [XXX, 2-(2-{[3-(3-Butyl-7-dimethylamino-3-ethyl-4-hydroxy-1,1-dioxo-2,3,4,5-tetrahydro-1H-benzo[b]thiepin-5-yl)phenylcarbamoyl]methoxy}ethoxy)-N-{4-[3-[3-(4-fluorophenyl)-3-hydroxypropyl]-2-(4-methoxyphenyl)-4-oxoazetidin-1-yl]benzyl}acetamide] | – | 116 to 125 °C | –
CCCCC1(CC)CS(=O)(=O)c2ccc(N(C)C)cc2C(c2cccc(NC(=O)COCCOCCOCC(=O)NCc3ccc(N4C(=O)C(CCC(O)c5ccc(F)cc5)C4c4ccc(OC)cc4)cc3)c2)C1O (stereo not drawn) [XXXI, N-[3-(3-Butyl-7-dimethylamino-3-ethyl-4-hydroxy-1,1-dioxo-2,3,4,5-tetrahydro-1H-benzo[b]thiepin-5-yl)phenyl]-2-{2-[2-({4-[3-[3-(4-fluorophenyl)-3-hydroxypropyl]-2-(4-methoxyphenyl)-4-oxoazetidin-1-yl]benzylcarbamoyl}methoxy)ethoxy]ethoxy}acetamide] | 0.1 mg/mouse | – | –
